According to patent US6083985A, “Medicinal composition” (Banyu Pharmaceutical Co., Ltd., priority 1995, dated 2000):
Read-outs that look alike come from different tables or passages of the source.

Key:
[1] = test system: farnesylation of Ras protein in NIH3T3 cells; assay: Inhibitory effect on farnesylation of Ras protein in NIH3T3 cells into which an activated ras gene was introduced (SDS-PAGE, anti-Ras antibody, densitometry); type: cell-based; settings: for inhibitory activity on farnesylation of Ras proteins in the presence of L-654,969: in the presence of L-654,969 (0.15 μM or 5 μM)
Description: Inhibitory effect on farnesylation of Ras protein in NIH3T3 cells into which an activated ras gene was introduced, was measured by using the compounds prepared in Preparation Examples 3 and 5 as PFT inhibitors and L-654,969 (an active metabolite of simvastatin) as a hydroxymethylglutaryl CoA reductase inhibitor.
The cells were cultured for 24 hours, peeled off the plates and dissolved in accordance with the method disclosed in J. Biol. Chem., vol. 268, 18415 (1993). The cell solutions were centrifuged at 12000 g for 5 minutes, and the supernatants were used as cell extracts. The cell extracts were subjected to SDS polyacrylamide gel electrophoresis to separate the farnesylated Ras protein and the unfarnesylated Ras protein. […] After the anti-primary antibody, a peroxidaze-conjugated antibody (a secondary antibody) was allowed to react, the Ras protein was detected by mean of a chemoluminescence amplification kit. The proportion of the unfarnesylated Ras protein was determined by using a densitometer and defined as the inhibitory activity.

BMJ1 cells = assay: Inhibitory activity on proliferation of transformed BMJ1 cells (SRB method); type: cell-based, mouse; settings: for IC50: Mus musculus, transformed BMJ1 cells; for 50% cell proliferation inhibitory activity in the presence of L-654,969: presence of 0.8 μM of L-654,969
Description: The BMJ1 cells which were obtained by introducing a hormone-inducible activated ras gene into BALB3T3 cells, a mouse-derived established cell line, were transformed by adding dexamethasone to the culture so as to produce an activated Ras protein. To assess the inhibitory effects of the PFT inhibitors on cell proliferation, the 50% proliferation inhibitory concentration for each compound was calculated by adding each compound to a transformed BMJ1 cell culture at various concentrations, and counting the number of cells after incubation. The cell numbers were counted in accordance with the SRB method disclosed in Proc. Am. Assoc. Cancer Res., vol.

[2] = PFT inhibitor 1 μM, L-654,969 5 μM, 24 hours
[3] = PFT inhibitor 3 μM, L-654,969 0.15 μM, 24 hours
[4] = PFT inhibitor 3 μM, L-654,969 5 μM, 24 hours
[5] = In the absence of L-654,969, read-out: 50% Proliferation inhibitory concentration (IC50 μM) In the absence of L-654,969
[6] = In the presence of 0.8 μM of L-654,969, read-out: 50% Proliferation inhibitory concentration (IC50 μM) In the presence of 0.8 μM of L-654,969

| SMILES | inhibition at 10 µM ([1]; Mus musculus, NIH3T3, PFT inhibitor 10 μM, L-654,969: None, 24 hours, read-out: Inhibitory rate (%) on farnesylation of the Ras proteins) [%] | Inhibitory rate (%) on farnesylation of the Ras proteins [1, 2] [%] | Inhibitory rate (%) on farnesylation of the Ras proteins [1, 3] [%] | Inhibitory rate (%) on farnesylation of the Ras proteins [1, 4] [%] | Inhibitory rate (%) on farnesylation of the Ras proteins ([1]; PFT inhibitor 10 μM, L-654,969 0.15 μM, 24 hours) [%] | Inhibitory rate (%) on farnesylation of the Ras proteins ([1]; PFT inhibitor 10 μM, L-654,969 5 μM, 24 hours) [%] | inhibitory activity on farnesylation of Ras proteins in the presence of L-654,969 [1] | IC50 (BMJ1 cells; [5]) [µM] | IC50 (BMJ1 cells; [6]) [µM] | 50% cell proliferation inhibitory activity in the presence of L-654,969 (BMJ1 cells) | inhibition of farnesylation of the Ras proteins by L-654,969 by itself ([1]; 0.15 μM or 5 μM, by itself) | inhibition of cell proliferation by L-654,969 alone (BMJ1 cells; 0.8 μM, alone) | inhibition at 3 µM ([1]; Mus musculus, NIH3T3, PFT inhibitor 3 μM, L-654,969: None, 24 hours, read-out: Inhibitory rate (%) on farnesylation of the Ras proteins) [%] | Inhibitory rate (%) on farnesylation of the Ras proteins ([1]; PFT inhibitor 0.3 μM, L-654,969 5 μM, 24 hours) [%] | Inhibitory rate (%) on farnesylation of the Ras proteins ([1]; PFT inhibitor 1 μM, L-654,969 0.15 μM, 24 hours) [%] |
| --- | --- | --- | --- | --- | --- | --- | --- | --- | --- | --- | --- | --- | --- | --- | --- |
| C[C@H]([C@H](C/C=C/c1nc2ccccc2o1)c1ccc2c(c1)OCO2)N(Cc1ccc2ccccc2c1)C(=O)CC(CC(=O)O)(C(=O)O)C(=O)O (racemic) [Preparation Example 3, 3-[N-{(1RS,2RS,4E)-5-(2-benzoxazolyl)-1-methyl-2-(3,4-methylenedioxyphenyl)-4-pentenyl}-N-(2-naphthylmethyl)carbamoyl]-1,2,2-propanetricarboxylic acid] | 32 | 55 | 27 | 88 | 67 | 90 | increased synergically and concentration-dependently | 130 | 11 | increased synergecally and concentration-dependently | – | – | – | – | – |
| CCC(C)(C)C(=O)O[C@H]1C[C@@H](C)C=C2C=C[C@H](C)[C@H](CC[C@@H](O)C[C@@H](O)CC(=O)O)[C@H]21 [L-654,969, reference compound] | – | – | – | – | – | – | – | – | – | – | does not inhibit farnesylation of the Ras proteins | does not inhibit cell proliferation alone | – | – | – |
| C[C@H]([C@H](C/C=C/c1nc2ccccc2o1)c1ccc2c(c1)OCO2)N(Cc1ccc2ccccc2c1)C(=O)[C@H](O)[C@@H](CC(=O)[O-])C(=O)[O-].[Na+].[Na+] (racemic) [Preparation Example 4, disodium (3RS,4RS)-4-[N-{(1RS,2RS,4E)-5-(2-benzoxazolyl)-1-methyl-2-(3,4-methylenedioxyphenyl)-4-pentenyl}-N-(2-naphthylmethyl)carbamoyl]-3-carboxylato-4-hydroxybutanoate] | – | – | – | – | – | – | – | 105 | 6.5 | increased synergecally and concentration-dependently | – | – | – | – | – |
| C[C@H]([C@H](C/C=C/c1nc2ccccc2o1)c1ccc2c(c1)OCO2)N(Cc1ccc2ccccc2c1)C(=O)C(O)=C(CC(=O)O)C(=O)OC(C)(C)C [Preparation Example 5, 4-[N-{(1R,2R,4E)-5-(2-benzoxazolyl)-1-methyl-2-(3,4-methylenedioxyphenyl)-4-pentenyl}-N-(2-naphthylmethyl)carbamoyl]-3-tert-butoxycarbonyl-4-hydroxy-3-butenoic acid] | – | 86 | 72 | 95 | – | – | increased synergically and concentration-dependently | 3.1 | 0.93 | increased synergecally and concentration-dependently | – | – | 32 | 43 | 18 |
